US20240174744A1, “METHODS OF TREATMENT USING PROTEIN BINDERS TO IRHOM2 EPITOPES” (SCIRHOM GMBH, priority 2021, published 2024)

Test system: LPS-induced release of TNFα from THP-1 cells
Assay: ELISA-based TNFα release assay, LPS-stimulated THP-1 cells
Assay type: cell-based, human
Settings: 10 μg/ml, Batimastat 10 μM, LPS 50 ng/ml, 2 hours
Method: In the following study, ELISA-based TNFα release assays were performed to verify the inhibitory effects of the purified antibodies of the present disclosure on LPS-induced release of endogenous TNFα from human THP-1 monocytic cells.
In brief, on day 1, Nunc black MaxiSorp® 96-well plates (Thermo Fisher Scientific, USA) were coated overnight with 100 μl per well of mouse anti-human TNFα capture antibody (provided as part of the DuoSet ELISA kit) at 4 μg/ml TBS at 4° C. On day 2, the capture antibody solution was removed and MaxiSorp® plates were blocked with 300 μl per well of TBS, 1% BSA at room temperature for 3 hours. […] Using an infinite M1000 (Tecan Group, Switzerland) microplate reader, the fluorescence of each well was collected at an excitation wavelength of 435 nm and an emission wavelength of 555 nm. […]

In the case of `CNC(=O)[C@H](Cc1ccccc1)NC(=O)[C@H](CC(C)C)[C@H](CSc1cccs1)C(=O)NO` [Batimastat], the “inhibition of LPS-induced release of TNFα from THP-1 cells” value (antibodies purified from hybridoma supernatants) is reported as 96.2% and the “inhibition of LPS-induced release of TNFα from THP-1 cells” value (recombinant antibodies (Expi293F)) is reported as 96.2%.
